Measurements reported in US6465457B1 (priority 1991, dated 2002).
Like-named read-outs stand apart in the source and are kept apart here.

Tests used:
Format in all cases: in vivo
[1] = system: Phytophthora infestans (Tomatoes); settings: one or two days before inoculation
[2] = system: Erysiphe graminis tritici (Wheat); assay: Foliar fungal disease test on plants: Erysiphe graminis tritici (Wheat); settings: plants inoculated 24 hours before treatment
[3] = system: Venturia inaequalis (Apples); assay: Foliar fungal disease test on plants: Venturia inaequalis (Apples); settings: one or two days before inoculation
[4] = system: Septoria nodorum (Wheat); assay: Foliar fungal disease test on plants: Septoria nodorum (Wheat); settings: one or two days before inoculation
[5] = system: Thanatephorus cucumeries (Rice); assay: Foliar fungal disease test on plants: Thanatephorus cucumeries (Rice); settings: one or two days before inoculation
[6] = system: Pyricularia oryzae (Rice); settings: one or two days before inoculation
[7] = system: Puccinia recondita (Wheat); assay: Foliar fungal disease test on plants: Puccinia recondita (Wheat); settings: plants inoculated with Puccinia recondita 48 hours before treatment
[8] = system: Plasmopara viticola (Vines); assay: Foliar fungal disease test on plants: Plasmopara viticola (Vines); settings: one or two days before inoculation
[9] = 100 ppm a.i. foliar spray or root drench (approx. 40 ppm in dry soil)
[10] = 100 ppm a.i. foliar spray or root drench

COC=C(C(=O)OC)c1ccccc1COC(=O)Nc1ccc(F)c(F)c1 [28 (1)]
POCO (Percentage of Control) disease level, Phytophthora infestans (Tomatoes) ([1]; 10 ppm foliar spray only): 90 (90 and 94 = 60.1-100% disease present)
POCO (Percentage of Control) disease level, Erysiphe graminis tritici (Wheat) ([2]; 10 ppm foliar spray only): 90 (90 and 94 = 60.1-100% disease present)
POCO (Percentage of Control) disease level, Venturia inaequalis (Apples) ([3]; 10 ppm foliar spray only): 60 (60 = 30.1-60% disease present)
POCO (Percentage of Control) disease level, Septoria nodorum (Wheat) ([4]; 10 ppm foliar spray only): 30 (30 = 20.1-30% disease present)
POCO (Percentage of Control) disease level, Thanatephorus cucumeries (Rice) ([5]; 10 ppm foliar spray only): 90 (90 and 94 = 60.1-100% disease present)
POCO (Percentage of Control) disease level, Pyricularia oryzae (Rice) ([6]; 10 ppm foliar spray only): 0 (0 = 0% disease present)
POCO (Percentage of Control) disease level, Puccinia recondita (Wheat) ([7]; 10 ppm foliar spray only): 5+ (5 = 3.1-5% disease present)
POCO (Percentage of Control) disease level, Plasmopara viticola (Vines) ([8]; 10 ppm foliar spray only): 30 (30 = 20.1-30% disease present)

COC=C(C(=O)OC)c1ccccc1COC(=O)N(C)c1ccc(F)c(F)c1 [28 (2)]
POCO (Percentage of Control) disease level, Phytophthora infestans (Tomatoes) [1, 9]: 10 (10 = 5.1-10% disease present)
POCO (Percentage of Control) disease level, Erysiphe graminis tritici (Wheat) [2, 9]: 0 (0 = 0% disease present)
POCO (Percentage of Control) disease level, Venturia inaequalis (Apples) [3, 9]: 0 (0 = 0% disease present)
POCO (Percentage of Control) disease level, Septoria nodorum (Wheat) [4, 9]: 0 (0 = 0% disease present)
POCO (Percentage of Control) disease level, Thanatephorus cucumeries (Rice) [5, 9]: 0 (0 = 0% disease present)
POCO (Percentage of Control) disease level, Pyricularia oryzae (Rice) [6, 9]: 0 (0 = 0% disease present)
POCO (Percentage of Control) disease level, Puccinia recondita (Wheat) [7, 10]: 0+ (0 = 0% disease present)
POCO (Percentage of Control) disease level, Plasmopara viticola (Vines) [8, 9]: 0 (0 = 0% disease present)

CCN(C(=O)OCc1ccccc1C(=COC)C(=O)OC)c1ccc(F)c(F)c1 [28 (3)]
POCO (Percentage of Control) disease level, Phytophthora infestans (Tomatoes) [1, 9]: 20 (20 and 24 = 10.1-20% disease present)
POCO (Percentage of Control) disease level, Erysiphe graminis tritici (Wheat) [2, 9]: 0 (0 = 0% disease present)
POCO (Percentage of Control) disease level, Venturia inaequalis (Apples) [3, 9]: 0 (0 = 0% disease present)
POCO (Percentage of Control) disease level, Septoria nodorum (Wheat) [4, 9]: 0 (0 = 0% disease present)
POCO (Percentage of Control) disease level, Thanatephorus cucumeries (Rice) [5, 9]: 0 (0 = 0% disease present)
POCO (Percentage of Control) disease level, Pyricularia oryzae (Rice) [6, 9]: 1 (1 = 0.1-1% disease present)
POCO (Percentage of Control) disease level, Puccinia recondita (Wheat) [7, 10]: 0+ (0 = 0% disease present)
POCO (Percentage of Control) disease level, Plasmopara viticola (Vines) [8, 9]: 0 (0 = 0% disease present)

COC=C(C(=O)OC)c1ccccc1COC(=O)N(C)c1ccccc1C(=O)OC [33 (2)]
POCO (Percentage of Control) disease level, Phytophthora infestans (Tomatoes) [1, 9]: 90 (90 and 94 = 60.1-100% disease present)
POCO (Percentage of Control) disease level, Erysiphe graminis tritici (Wheat) [2, 9]: 0 (0 = 0% disease present)
POCO (Percentage of Control) disease level, Venturia inaequalis (Apples) [3, 9]: 60 (60 = 30.1-60% disease present)
POCO (Percentage of Control) disease level, Septoria nodorum (Wheat) [4, 9]: 90 (90 and 94 = 60.1-100% disease present)
POCO (Percentage of Control) disease level, Thanatephorus cucumeries (Rice) [5, 9]: 60 (60 = 30.1-60% disease present)
POCO (Percentage of Control) disease level, Pyricularia oryzae (Rice) [6, 9]: 30 (30 = 20.1-30% disease present)
POCO (Percentage of Control) disease level, Puccinia recondita (Wheat) [7, 10]: 90+ (90 and 94 = 60.1-100% disease present)
POCO (Percentage of Control) disease level, Plasmopara viticola (Vines) [8, 9]: 10 (10 = 5.1-10% disease present)

COC=C(C(=O)OC)c1ccccc1COC(=O)Nc1ccc(F)c(Cl)c1 [104 (1)]
POCO (Percentage of Control) disease level, Phytophthora infestans (Tomatoes) [1, 9]: 90 (90 and 94 = 60.1-100% disease present)
POCO (Percentage of Control) disease level, Erysiphe graminis tritici (Wheat) [2, 9]: 90 (90 and 94 = 60.1-100% disease present)
POCO (Percentage of Control) disease level, Venturia inaequalis (Apples) [3, 9]: 90 (90 and 94 = 60.1-100% disease present)
POCO (Percentage of Control) disease level, Septoria nodorum (Wheat) [4, 9]: 90 (90 and 94 = 60.1-100% disease present)
POCO (Percentage of Control) disease level, Thanatephorus cucumeries (Rice) [5, 9]: 90 (90 and 94 = 60.1-100% disease present)
POCO (Percentage of Control) disease level, Pyricularia oryzae (Rice) [6, 9]: 90 (90 and 94 = 60.1-100% disease present)
POCO (Percentage of Control) disease level, Puccinia recondita (Wheat) [7, 10]: 90+ (90 and 94 = 60.1-100% disease present)
POCO (Percentage of Control) disease level, Plasmopara viticola (Vines) [8, 9]: 60 (60 = 30.1-60% disease present)

COC=C(C(=O)OC)c1ccccc1COC(=O)N(C)c1ccc(F)c(Cl)c1 [104 (2)]
POCO (Percentage of Control) disease level, Phytophthora infestans (Tomatoes) [1, 9]: 10 (10 = 5.1-10% disease present)
POCO (Percentage of Control) disease level, Erysiphe graminis tritici (Wheat) [2, 9]: 0 (0 = 0% disease present)
POCO (Percentage of Control) disease level, Venturia inaequalis (Apples) [3, 9]: 0 (0 = 0% disease present)
POCO (Percentage of Control) disease level, Septoria nodorum (Wheat) [4, 9]: 0 (0 = 0% disease present)
POCO (Percentage of Control) disease level, Thanatephorus cucumeries (Rice) [5, 9]: 0 (0 = 0% disease present)
POCO (Percentage of Control) disease level, Pyricularia oryzae (Rice) [6, 9]: 0 (0 = 0% disease present)
POCO (Percentage of Control) disease level, Puccinia recondita (Wheat) [7, 10]: 0+ (0 = 0% disease present)
POCO (Percentage of Control) disease level, Plasmopara viticola (Vines) [8, 9]: 0 (0 = 0% disease present)

COC=C(C(=O)OC)c1ccccc1COC(=O)Nc1ccc(F)c([N+](=O)[O-])c1 [105 (1)]
POCO (Percentage of Control) disease level, Phytophthora infestans (Tomatoes) [1, 9]: 90 (90 and 94 = 60.1-100% disease present)
POCO (Percentage of Control) disease level, Erysiphe graminis tritici (Wheat) [2, 9]: 30 (30 = 20.1-30% disease present)
POCO (Percentage of Control) disease level, Venturia inaequalis (Apples) [3, 9]: 20 (20 and 24 = 10.1-20% disease present)
POCO (Percentage of Control) disease level, Septoria nodorum (Wheat) [4, 9]: 90 (90 and 94 = 60.1-100% disease present)
POCO (Percentage of Control) disease level, Thanatephorus cucumeries (Rice) [5, 9]: 60 (60 = 30.1-60% disease present)
POCO (Percentage of Control) disease level, Pyricularia oryzae (Rice) [6, 9]: 60 (60 = 30.1-60% disease present)
POCO (Percentage of Control) disease level, Puccinia recondita (Wheat) [7, 10]: 90+ (90 and 94 = 60.1-100% disease present)
POCO (Percentage of Control) disease level, Plasmopara viticola (Vines) [8, 9]: 90 (90 and 94 = 60.1-100% disease present)

COC=C(C(=O)OC)c1ccccc1COC(=O)N(C)c1ccc(F)c([N+](=O)[O-])c1 [105 (2)]
POCO (Percentage of Control) disease level, Phytophthora infestans (Tomatoes) [1, 9]: 0 (0 = 0% disease present)
POCO (Percentage of Control) disease level, Erysiphe graminis tritici (Wheat) [2, 9]: 0 (0 = 0% disease present)
POCO (Percentage of Control) disease level, Venturia inaequalis (Apples) [3, 9]: 10 (10 = 5.1-10% disease present)
POCO (Percentage of Control) disease level, Septoria nodorum (Wheat) [4, 9]: 90 (90 and 94 = 60.1-100% disease present)
POCO (Percentage of Control) disease level, Thanatephorus cucumeries (Rice) [5, 9]: 0 (0 = 0% disease present)
POCO (Percentage of Control) disease level, Pyricularia oryzae (Rice) [6, 9]: 5 (5 = 3.1-5% disease present)
POCO (Percentage of Control) disease level, Puccinia recondita (Wheat) [7, 10]: 90+ (90 and 94 = 60.1-100% disease present)
POCO (Percentage of Control) disease level, Plasmopara viticola (Vines) [8, 9]: 0 (0 = 0% disease present)

CCN(C(=O)OCc1ccccc1C(=COC)C(=O)OC)c1ccc(F)c([N+](=O)[O-])c1 [105 (3)]
POCO (Percentage of Control) disease level, Phytophthora infestans (Tomatoes) [1, 9]: 0 (0 = 0% disease present)
POCO (Percentage of Control) disease level, Erysiphe graminis tritici (Wheat) [2, 9]: 90 (90 and 94 = 60.1-100% disease present)
POCO (Percentage of Control) disease level, Venturia inaequalis (Apples) [3, 9]: 0 (0 = 0% disease present)
POCO (Percentage of Control) disease level, Septoria nodorum (Wheat) [4, 9]: 90 (90 and 94 = 60.1-100% disease present)
POCO (Percentage of Control) disease level, Thanatephorus cucumeries (Rice) [5, 9]: 20 (20 and 24 = 10.1-20% disease present)
POCO (Percentage of Control) disease level, Pyricularia oryzae (Rice) [6, 9]: 60 (60 = 30.1-60% disease present)
POCO (Percentage of Control) disease level, Puccinia recondita (Wheat) [7, 10]: 90+ (90 and 94 = 60.1-100% disease present)
POCO (Percentage of Control) disease level, Plasmopara viticola (Vines) [8, 9]: 0 (0 = 0% disease present)
